A word on the GI50: it is the concentration at which growth is held to half of that of the control. The inhibition is the share of the control response that was lost under treatment. In general, pIC50 refers to the IC50 on a negative log10 scale, so that one unit is a factor of ten.

Experiment [1] relates to KYSE-70 esophageal cancer cell line. In words: Cell growth inhibition of KYSE-70 (Sulforhodamine B). Conditions: Homo sapiens; KYSE-70, 72 hours; read-out: KYSE70 GI50. Type of experiment: cell-based. The protocol: The cell line according to the present invention was selected as KYSE-70, an esophageal cancer cell line in which YES1 is amplified. The evaluation of cell growth inhibition was performed as follows.
KYSE-70 was cultured in RPMI-1640 (Capricorn) supplemented with 10% FBS (Cellgro). The cells were seeded 24 hours prior to compound treatment, into three 96-well F-bottom clear plates (Greiner), with 7,500 cells per well in 180 μL of medium. The 10 mM compound was diluted 100-fold in medium to prepare a 100 μM compound, which was then placed into a 96-well plate and further 3-fold diluted in medium to prepare a compound plate with concentrations ranging from 0.046 μM to 100 μM. 20 μL of each compound from the drug plate was added to the cell-seeded plates to achieve final concentrations of 0.0046 μM to 10 μM. At the same time, 50 μL of 33% trichloroacetic acid was injected into one plate and the plate was fixed by incubating at 4° C. This was referred to as the Do plate. Viable cells were measured 72 hours after compound treatment by injecting 50 μL of 33% trichloroacetic acid and incubating at 4° C. for more than 1 hour to fix the cells. This was referred to as the D3 plate. After the Do plate and D3 plates were washed 5 times with sterile water, 100 μL of 0.04% Sulforhodamine B solution in 1% acetic acid was added and reacted for 1 hour to stain the cells. After staining, the plates were washed 4 times with 1% acetic acid solution and completely dried. Then, the Sulforhodamine B bound to cellular proteins was completely dissolved with 10 mM Tris base solution (pH 10.5). The absorbance was measured at a wavelength of 510 nm using a microplate reader (TECAN, sunrise microplate reader). The analysis was performed using GraphPad Prism. The average absorbance of the Do plate was set to 0%, and the average absorbance of the negative control of the D3 plate was set to 100%, from which a graph was drawn and the GI50 values were calculated. Each test was performed twice.

In experiment [2] the target is YES1 kinase (Homo sapiens, UniProt P07947). Nature of the experiment: YES1 kinase inhibition, ADP Glo assay (Promega). Type of experiment: biochemical. Conditions: for inhibition at 0.01 µM: compound 10 nM, read-out: YES1 enzyme, % inhibition, 10 nM; for inhibition at 0.1 µM: compound 100 nM, read-out: YES1 enzyme, % inhibition, 100 nM; for pIC50: class symbols, read-out: YES1 enzyme, IC50; for inhibition at 0.001 µM: read-out: YES1 enzyme, % inhibition, 1 nM. The protocol:
To evaluate the inhibitory activity against YES1 kinase of the compound according to the present invention, ADP Glo assay (Promega) was used, and the following method was performed with reference to the Promega kinase enzyme system protocol. To proceed with the experiment, buffers A-F and compound dilution plates were required.
To prepare A.4X reaction buffer, 800 μl of 5X reaction buffer and 200 μl of distilled water were used. To prepare B.4X kinase buffer, 996.6 μl of A.4X reaction buffer, 2 μl of 0.1M DTT, and 3.2 μl of 2.5M MnCl2 were added and mixed. To prepare C.1X kinase buffer (containing 5% DMSO) used for compound dilution, 250 μl of B.4X kinase buffer, 700 μl of distilled water, and 50 μl of DMSO were added, so that the final DMSO concentration became 5%. Then, 10 mM compounds were diluted 100-fold to prepare 100 μM solutions, and then D.5X inhibitor solution was prepared so that the compound concentration became 5 uM. Using a 96-well plate, 5 μM compounds were 3-fold diluted using C.1X kinase buffer (containing 5% DMSO) to prepare compound plates with concentrations ranging from 0.25 μM to 5 μM. The resulting plates were stored at room temperature. To prepare E. 2.5X ATP/substrate mixture, 50 μl of B.4X kinase buffer, 50 μl of […], and 100 μl of substrate were mixed. To prepare F YES1 kinase enzyme solution, 35 μl of B.4X kinase buffer, 0.4 μl of YES1 enzyme, and 104.6 μl of distilled water were used. Once the diluted compound plates, ATP/substrate mixture, and YES1 kinase solution were all prepared, 3 μL each was transferred from the diluted compound plate to a luciferase 96-well white plate (Since the total volume of the ATP/substrate and YES1 kinase solution that reacts with the compound is 15 μL, the compounds were diluted 5-fold, making the final compound concentration 0.05 μM-1 μM). Then, 6 μL of F. YES1 Kinase Enzyme Solution was transferred to each well, pipetted 10 times to mix, and incubated at room temperature in a shaker for 10 minutes. Next, 6 μL of E. 2.5X ATP/Substrate Mixture was transferred to each well, pipetted 10 times to mix, and centrifuged at 12,000 rpm for 5 minutes. The plate was then incubated in a shaker at room temperature for 40 minutes. After that, 15 μL of ADP-Glo Reagent, dissolved at room temperature, was added to each well, pipetted 10 times, and incubated in a shaker at room temperature for 40 minutes. Finally, 30 μL of Kinase Detection Reagent, dissolved at room temperature, was added, pipetted 10 times, incubated in a shaker at room temperature for 30 minutes. Luminescence was measured using a luminescence plate reader. Then, the background value was subtracted from all measured values, and the YES1 kinase activity at compound concentrations of 1 nM, 10 nM, and 100 nM was calculated. The measured values were calculated as percentages using the average value of the negative control. Graphs were drawn using GraphPad Prism, and the enzyme activity was calculated as a percentage of YES1 kinase inhibition at compound concentrations of 1 nM, 10 nM, and 100 nM. IC50 values were obtained using Microsoft Excel.

pIC50: −log10 of the molar value. Where only a bound is given, the exact number is not on record here.

Sequence of YES1 kinase (P07947 whole entry): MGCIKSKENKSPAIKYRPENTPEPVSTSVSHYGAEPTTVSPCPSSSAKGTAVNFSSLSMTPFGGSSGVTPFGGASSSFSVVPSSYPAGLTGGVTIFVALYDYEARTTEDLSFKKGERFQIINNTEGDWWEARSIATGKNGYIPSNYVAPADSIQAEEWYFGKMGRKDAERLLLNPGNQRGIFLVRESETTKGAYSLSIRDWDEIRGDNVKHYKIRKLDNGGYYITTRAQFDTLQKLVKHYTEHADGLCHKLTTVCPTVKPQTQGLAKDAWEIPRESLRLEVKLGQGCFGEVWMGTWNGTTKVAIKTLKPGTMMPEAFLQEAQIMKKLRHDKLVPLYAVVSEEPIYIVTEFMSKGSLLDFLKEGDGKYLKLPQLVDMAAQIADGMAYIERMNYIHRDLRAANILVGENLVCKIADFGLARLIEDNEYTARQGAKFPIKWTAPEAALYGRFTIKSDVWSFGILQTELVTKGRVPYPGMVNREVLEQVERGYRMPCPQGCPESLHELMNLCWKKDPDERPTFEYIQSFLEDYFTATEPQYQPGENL

Take `COc1cc(-c2cc(-c3ccc(N(C)C)c(F)c3)n3ncnc(N)c23)ccc1NC(=O)OC(C)(C)C` [Example 4, tert-butyl (4-(4-amino-7-(4-(dimethylamino)-3-fluorophenyl)pyrrolo[2,1-f][1,2,4]triazin-5-yl)-2-methoxyphenyl)carbamate]: in experiment [1], the 50% growth inhibitory concentration (GI50) lay within 1000 to 10000 nM. Further, in experiment [2], the inhibition at 0.01 µM amounted to 31% and the inhibition at 0.1 µM amounted to 29%.

Take `COc1cc(-c2cc(N3CC(C)C(N)C(C)C3)n3ncnc(N)c23)ccc1NC(=O)OC(C)(C)C` (stereo not shown) [Example 91, tert-butyl (4-(4-amino-7-(4-amino-3,5-dimethylpiperidin-1-yl)pyrrolo[2,1-f][1,2,4]triazin-5-yl)-2-methoxyphenyl)carbamate]: the GI50 in experiment [1] lay in the range of 100 to 1000 nM. In experiment [2], the inhibition at 0.01 µM stood at 21% and the inhibition at 0.1 µM came out at 59%.

As for `COc1cc(-c2cc(N3CCC4(CCN(C)CC4)C3)n3ncnc(N)c23)ccc1NC(=O)OC(C)(C)C` [Example 36, tert-butyl (4-(4-amino-7-(8-methyl-2,8-diazaspiro[4.5]decan-2-yl)pyrrolo[2,1-f][1,2,4]triazin-5-yl)-2-methoxyphenyl)carbamate], in experiment [1], the GI50 was 100 to 1000 nM. In experiment [2], the inhibition at 0.01 µM was determined as 36% and the inhibition at 0.1 µM stood at 78%.

On to `COc1cc(-c2cc(N3CCC4(CCC(=O)N4)CC3)n3ncnc(N)c23)ccc1NC(=O)OC(C)(C)C` [Example 54, tert-butyl (4-(4-amino-7-(2-oxo-1,8-diazaspiro[4.5]decan-8-yl)pyrrolo[2,1-f][1,2,4]triazin-5-yl)-2-methoxyphenyl)carbamate], for which, in experiment [1], the GI50 was no more than 100 nM. In addition, in experiment [2], the negative-log IC50 (pIC50) is no less than 7.00, the inhibition at 0.01 µM amounted to 20% and the inhibition at 0.1 µM turned out to be 60%.

For `COc1cc(-c2cc(N3CCC(CN(C)C)CC3)n3ncnc(N)c23)ccc1NC(=O)OC(C)(C)C` [Example 19, tert-butyl (4-(4-amino-7-(4-((dimethylamino)methyl)piperidin-1-yl)pyrrolo[2,1-f][1,2,4]triazin-5-yl)-2-methoxyphenyl)carbamate], the GI50 in experiment [1] is no more than 100 nM. Moreover, in experiment [2], the inhibition at 0.01 µM amounted to 69% and the inhibition at 0.1 µM amounted to 86%.

For the compound `COc1cc(-c2cc(N3CCC(N)CC3)n3ncnc(N)c23)ccc1NC(=O)c1ccco1` [Example 137, N-(4-(4-amino-7-(4-aminopiperidin-1-yl)pyrrolo[2,1-f][1,2,4]triazin-5-yl)-2-methoxyphenyl)furan-2-carboxamide], in experiment [1], the GI50 fell in the range of 100 to 1000 nM. Further, the negative logarithm of the IC50 (pIC50) in experiment [2] is no less than 7.00.

For the compound `COc1cc(-c2cc(-c3ccc(N(C)C)cc3)n3ncnc(N)c23)ccc1NC(=O)OC(C)(C)C` [Example 1, tert-butyl (4-(4-amino-7-(4-(dimethylamino)phenyl)pyrrolo[2,1-f][1,2,4]triazin-5-yl)-2-methoxyphenyl)carbamate], the GI50 in experiment [1] was 1000 to 10000 nM. Also, in experiment [2], the inhibition at 0.01 µM is 17% and the inhibition at 0.1 µM was found to be 31%.

For the compound `COc1cc(-c2cc(N3CCC(CC(=O)O)CC3)n3ncnc(N)c23)ccc1NC(=O)OC(C)(C)C` [Example 101, 2-(1-(4-amino-5-(4-((tert-butoxycarbonyl)amino)-3-methoxyphenyl)pyrrolo[2,1-f][1,2,4]triazin-7-yl)piperidin-4-yl)acetic Acid], the GI50 in experiment [1] was greater than 10000 nM. Further, in experiment [2] (compound 1 nM), the “YES1 kinase inhibition at 1 nM (in words)” value is reported as “could be inhibited even at a low concentration of 1 nM” and the inhibition at 0.001 µM was 16%. Besides, the inhibition at 0.01 µM in experiment [2] came out at 40%.

In the case of `COc1cc(-c2cc(N3CCC(CN(C)C)C3)n3ncnc(N)c23)ccc1NC(=O)OC(C)(C)C` (stereo not shown) [Example 20, tert-butyl (4-(4-amino-7-(3-((dimethylamino)methyl)pyrrolidin-1-yl)pyrrolo[2,1-f][1,2,4]triazin-5-yl)-2-methoxyphenyl)carbamate], in experiment [1], the concentration for 50% growth inhibition (GI50) lay in the range of 100 to 1000 nM. Moreover, in experiment [2], the inhibition at 0.01 µM amounted to 36% and the inhibition at 0.1 µM came to 70%.

Take `COc1cc(-c2cc(-c3ccc4c(c3)oc(=O)n4C)n3ncnc(N)c23)ccc1NC(=O)OC(C)(C)C` [Example 9, tert-butyl (4-(4-amino-7-(3-methyl-2-oxo-2,3-dihydrobenzo[d]oxazol-6-yl)pyrrolo[2,1-f][1,2,4]triazin-5-yl)-2-methoxyphenyl)carbamate]: in experiment [1], the concentration for 50% growth inhibition (GI50) was in the range of 1000 to 10000 nM. Further, in experiment [2], the inhibition at 0.01 µM was 39% and the inhibition at 0.1 µM was 57%.

Take `CNC1CCN(c2c(F)c(-c3ccc(NC(=O)OC(C)(C)C)c(OC)c3)c3c(N)ncnn23)CC1` [Example 129, tert-butyl (4-(4-amino-6-fluoro-7-(4-(methylamino)piperidin-1-yl)pyrrolo[2,1-f][1,2,4]triazin-5-yl)-2-methoxyphenyl)carbamate]: the GI50 in experiment [1] is no more than 100 nM. In addition, in experiment [2], the negative logarithm of the IC50 (pIC50) is no less than 7.00, the inhibition at 0.01 µM is 70% and the inhibition at 0.1 µM stood at 92%.

Regarding `Nc1ncnn2c(N3CCC(N)CC3)cc(-c3ccc(Oc4ccccc4)cc3)c12` [Example 135, 7-(4-aminopiperidin-1-yl)-5-(4-phenoxyphenyl)pyrrolo[2,1-f][1,2,4]triazin-4-amine], in experiment [1], the concentration for 50% growth inhibition (GI50) is no more than 100 nM. For the same compound, in experiment [2], the inhibition at 0.01 µM is 62% and the inhibition at 0.1 µM came to 87%.

For `COc1cc(-c2cc(N3CCC(CCN)CC3)n3ncnc(N)c23)ccc1NC(=O)OC(C)(C)C` [Example 107, tert-butyl (4-(4-amino-7-(4-(2-aminoethyl)piperidin-1-yl)pyrrolo[2,1-f][1,2,4]triazin-5-yl)-2-methoxyphenyl)carbamate], the GI50 in experiment [1] was in the range of 100 to 1000 nM. Besides, in experiment [2], the negative logarithm of the IC50 (pIC50) was no less than 7.00 and the inhibition at 0.01 µM was 52%. Moreover, in experiment [2] (compound 1 nM), the inhibition at 0.001 µM is 38%.

`COc1cc(-c2cc(N3CCC4(CC3)CN(C)C4)n3ncnc(N)c23)ccc1NC(=O)OC(C)(C)C` [Example 21, tert-butyl (4-(4-amino-7-(2-methyl-2,7-diazaspiro[3.5]nonan-7-yl)pyrrolo[2,1-f][1,2,4]triazin-5-yl)-2-methoxyphenyl)carbamate]: in experiment [1], the concentration for 50% growth inhibition (GI50) lay within 100 to 1000 nM. Besides, in experiment [2], the inhibition at 0.01 µM was determined as 67% and the inhibition at 0.1 µM turned out to be 92%.

Regarding `CNC1CCN(c2cc(-c3ccc(NC(=O)OC(C)(C)C)c(OC)c3)c3c(N)ncnn23)CC1` [Example 44, tert-butyl (4-(4-amino-7-(4-(methylamino)piperidin-1-yl)pyrrolo[2,1-f][1,2,4]triazin-5-yl)-2-methoxyphenyl)carbamate], in experiment [1], the GI50 was no more than 100 nM. Moreover, in experiment [2], the pIC50 is no less than 7.00, the inhibition at 0.01 µM stood at 80% and the inhibition at 0.1 µM was 96%.

The values are drawn from patent publication US20260297095A1, “NOVEL PYRROLOTRIAZINE DERIVATIVE AND USE THEREOF” (Pelemed Co., Ltd., priority 2024, published 2026).
